The target of assay [1] is T1, PputG6PDH-1 (Pseudomonas putida, UniProt Q88P31).
T1 sequence (Q88P31 1-489): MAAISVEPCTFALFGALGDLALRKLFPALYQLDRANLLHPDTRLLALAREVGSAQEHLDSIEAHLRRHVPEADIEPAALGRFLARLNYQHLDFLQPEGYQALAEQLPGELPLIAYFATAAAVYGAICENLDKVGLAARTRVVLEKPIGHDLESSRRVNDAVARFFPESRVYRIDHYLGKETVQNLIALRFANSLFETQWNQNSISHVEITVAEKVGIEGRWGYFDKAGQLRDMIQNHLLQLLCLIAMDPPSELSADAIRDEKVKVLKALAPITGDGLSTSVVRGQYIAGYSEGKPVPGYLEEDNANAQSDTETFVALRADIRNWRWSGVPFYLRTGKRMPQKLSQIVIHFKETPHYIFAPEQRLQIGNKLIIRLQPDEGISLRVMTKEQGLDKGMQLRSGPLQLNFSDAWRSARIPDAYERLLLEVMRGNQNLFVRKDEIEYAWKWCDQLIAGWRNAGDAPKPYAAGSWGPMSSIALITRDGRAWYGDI
The experiment in a line: progress curves at […] nm, product inhibition, global fit. In kind it is biochemical.

The target in assay [2] is T1, PputG6PDH-1. The experiment in a line: initial rates, NAD. In kind it is biochemical.

Broadly, the Ki is the equilibrium dissociation constant of an inhibitor or competing ligand from its target. A lower Ki goes with tighter binding. With `NC(=O)C1=CN([C@@H]2O[C@H](COP(=O)(O)OP(=O)(O)OC[C@H]3O[C@@H](n4cnc5c(N)ncnc54)[C@H](O)[C@@H]3O)[C@@H](O)[C@H]2O)C=CC1` [NADH], the affinity at PputG6PDH-1 [1] corresponds to a Ki of 480 ± 7 µM. The compound `NC(=O)C1=CN([C@@H]2O[C@H](COP(=O)(O)OP(=O)(O)OC[C@H]3O[C@@H](n4cnc5c(N)ncnc54)[C@H](OP(=O)(O)O)[C@@H]3O)[C@@H](O)[C@H]2O)C=CC1` [NADPH] showed a Ki on PputG6PDH-1 [2] of 18 ± 3 µM.

(Values after PMC4669411 (FEBS Open Bio, 2015).)
